Our source for the Emax and EC50 values is patent US20250230155A1 (Vanderbilt University, priority 2021, published 2025).

This assay concerns the target T1, human mAChR M4 (Homo sapiens, UniProt P08173).
T1 construct: expressed in transfected cells
T1 sequence (P08173 1-479): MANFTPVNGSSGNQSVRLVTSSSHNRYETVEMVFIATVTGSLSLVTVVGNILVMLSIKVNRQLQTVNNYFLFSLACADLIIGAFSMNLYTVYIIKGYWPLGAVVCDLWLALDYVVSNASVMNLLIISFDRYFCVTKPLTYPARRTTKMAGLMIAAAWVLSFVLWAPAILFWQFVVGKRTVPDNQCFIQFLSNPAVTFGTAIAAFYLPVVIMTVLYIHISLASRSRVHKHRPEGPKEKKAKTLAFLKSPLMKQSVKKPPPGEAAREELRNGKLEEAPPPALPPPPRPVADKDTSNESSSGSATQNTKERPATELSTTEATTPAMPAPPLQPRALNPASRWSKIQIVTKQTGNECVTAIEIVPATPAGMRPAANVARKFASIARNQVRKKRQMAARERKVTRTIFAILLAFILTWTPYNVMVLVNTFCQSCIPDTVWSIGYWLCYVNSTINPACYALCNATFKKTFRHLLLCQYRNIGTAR
Briefly: mAChR M4 cell-based functional assay (calcium mobilization, CHO-K1 hM4-Gqi5 cells). The settings on record: for Emax at 30 µM: CHO-K1, % ACh maximum at 30 μM, human M4; for EC50: positive allosteric modulator activity, increase in the EC20 acetylcholine response, CHO-K1 hM4-Gqi5 cells, read-out: Human M4 EC50; for Emax: CHO-K1. In a few lines: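 Fluorescent calcium read-out (Fluo-4 AM, FDSS, 1 Hz) in hM4-Gqi5 CHO-K1 cells, 11-point 1:3 compound series. Agonism scored on compound addition, PAM activity as increase of the 144 s EC20 acetylcholine response, antagonism as decrease of the 230 s EC80 response; four-parameter logistic fits give EC50 and Emax.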
(A change in cytosolic calcium serves as a functional read-out for many receptors and channels.)

Where only a bound is given, the exact number is not on record here.

The term Emax denotes the size of the effect at its maximum, as opposed to the concentration needed. In general, EC50 refers to the concentration that produces a half-maximal response.

In the case of `Cc1cc(C#N)cnc1N1CCc2ncc(-c3cnn(C4CCCC4)c3)cc2C1` [compound 98, 6-[3-(1-cyclopentylpyrazol-4-yl)-7,8-dihydro-5H-1,6-naphthyridin-6-yl]-5-methyl-pyridine-3-carbonitrile], the Emax at 30 µM is 79% and the EC50 is 407 nM.

As to `Cc1cc(C#N)cnc1N1CCc2ncc(-c3cnn(C4CCCCC4)c3)cc2C1` [compound 99, 6-[3-(1-cyclohexylpyrazol-4-yl)-7,8-dihydro-5H-1,6-naphthyridin-6-yl]-5-methyl-pyridine-3-carbonitrile], the Emax at 30 µM was 57% and the 50% effective concentration (EC50) was 740 nM.

Turning to `Cc1cc(C#N)cnc1N1CCc2ncc(-c3cnn(CC(F)(F)F)c3)cc2C1` [compound 100, 5-methyl-6-[3-[1-(2,2,2-trifluoroethyl)pyrazol-4-yl]-7,8-dihydro-5H-1,6-naphthyridin-6-yl]pyridine-3-carbonitrile], the Emax at 30 µM was 80% and the EC50 amounted to 188 nM.

Consider `Cc1cc(C#N)cnc1N1CCc2ncc(-c3cnn(C4CCC4)c3)cc2C1` [compound 101, 6-[3-(1-cyclobutylpyrazol-4-yl)-7,8-dihydro-5H-1,6-naphthyridin-6-yl]-5-methyl-pyridine-3-carbonitrile], for which the maximal response (Emax) at 30 µM came to 91% and the EC50 was 339 nM.

Turning to `Cc1cc(C#N)cnc1N1CCc2ncc(-c3cnn(CC4CC4)c3)cc2C1` [compound 102, 6-[3-[1-(cyclopropylmethyl)pyrazol-4-yl]-7,8-dihydro-5H-1,6-naphthyridin-6-yl]-5-methyl-pyridine-3-carbonitrile], the Emax at 30 µM came to 86% and the EC50 is 362 nM.

Regarding `Cc1cc(C#N)cnc1N1CCc2ncc(-c3cn(C)nc3C)cc2C1` [compound 103, 6-[3-(1,3-dimethylpyrazol-4-yl)-7,8-dihydro-5H-1,6-naphthyridin-6-yl]-5-methyl-pyridine-3-carbonitrile], the Emax at 30 µM was 95% and the EC50 is 158 nM.

Take `Cc1cc(C#N)cnc1N1CCc2ncc(-c3cnn(C)c3)cc2C1` [compound 104, 5-methyl-6-[3-(1-methylpyrazol-4-yl)-7,8-dihydro-5H-1,6-naphthyridin-6-yl]pyridine-3-carbonitrile]: the Emax at 30 µM was determined as 99% and the EC50 worked out at 216 nM.

In the case of `CCn1cc(-c2cnc3c(c2)CN(c2ncc(C#N)cc2C)CC3)cn1` [compound 105, 6-[3-(1-ethylpyrazol-4-yl)-7,8-dihydro-5H-1,6-naphthyridin-6-yl]-5-methyl-pyridine-3-carbonitrile], the Emax at 30 µM amounted to 98% and the EC50 is 263 nM.

`Cc1cc(C#N)cnc1N1CCc2ncc(-c3cnn(-c4ccc(F)cc4)c3)cc2C1` [compound 106, 6-[3-[1-(4-fluorophenyl)pyrazol-4-yl]-7,8-dihydro-5H-1,6-naphthyridin-6-yl]-5-methyl-pyridine-3-carbonitrile]: the Emax at 30 µM was 33% and the EC50 was determined as 1140 nM.

Take `Cc1cc(C#N)cnc1N1CCc2ncc(-c3c(C)nn(C)c3C)cc2C1` [compound 107, 5-methyl-6-[3-(1,3,5-trimethylpyrazol-4-yl)-7,8-dihydro-5H-1,6-naphthyridin-6-yl]pyridine-3-carbonitrile]: the Emax at 30 µM was determined as 98% and the EC50 came out at 142 nM.

`CCCn1cc(-c2cnc3c(c2)CN(c2ncc(C#N)cc2C)CC3)cn1` [compound 108, 5-methyl-6-[3-(1-propylpyrazol-4-yl)-7,8-dihydro-5H-1,6-naphthyridin-6-yl]pyridine-3-carbonitrile]: the Emax at 30 µM amounted to 90% and the EC50 was determined as 330 nM.

For `Cc1cc(C#N)cnc1N1CCc2ncc(-c3c(C)noc3C)cc2C1` [compound 109, 6-[3-(3,5-dimethylisoxazol-4-yl)-7,8-dihydro-5H-1,6-naphthyridin-6-yl]-5-methyl-pyridine-3-carbonitrile], the Emax at 30 µM came to 90% and the EC50 was 167 nM.

Consider `Cc1cc(C#N)cnc1N1CCc2ncc(Nc3cc(F)ccc3F)cc2C1` [compound 110, 6-[3-(2,5-difluoroanilino)-7,8-dihydro-5H-1,6-naphthyridin-6-yl]-5-methyl-pyridine-3-carbonitrile], for which the Emax at 30 µM was found to be 95% and the EC50 is 167 nM.

Turning to `Cc1cc(C#N)cnc1N1CCc2ncc(Nc3c(F)cccc3Cl)cc2C1` [compound 111, 6-[3-(2-chloro-6-fluoro-anilino)-7,8-dihydro-5H-1,6-naphthyridin-6-yl]-5-methyl-pyridine-3-carbonitrile], the Emax at 30 µM was determined as 93% and the EC50 turned out to be 345 nM.

For `Cc1cc(C#N)cnc1N1CCc2ncc(-c3cnn(CC(C)C)c3)cc2C1` [compound 112, 6-[3-(1-isobutylpyrazol-4-yl)-7,8-dihydro-5H-1,6-naphthyridin-6-yl]-5-methyl-pyridine-3-carbonitrile], the Emax at 30 µM amounted to 76% and the EC50 was determined as 465 nM.

Consider `Cc1cc(C#N)cnc1N1CCc2ncc(Nc3cccc(C(F)(F)F)c3F)cc2C1` [compound 113, 6-[3-[2-fluoro-3-(trifluoromethyl)anilino]-7,8-dihydro-5H-1,6-naphthyridin-6-yl]-5-methyl-pyridine-3-carbonitrile], for which the Emax at 30 µM stood at 98% and the EC50 turned out to be 1450 nM.

`Cc1cc(C#N)cnc1N1CCc2ncc(Nc3cccc(Cl)c3F)cc2C1` [compound 114, 6-[3-(3-chloro-2-fluoro-anilino)-7,8-dihydro-5H-1,6-naphthyridin-6-yl]-5-methyl-pyridine-3-carbonitrile]: the Emax at 30 µM was 100% and the EC50 was 969 nM.

For `Cc1ccc(F)c(Nc2cnc3c(c2)CN(c2ncc(C#N)cc2C)CC3)c1` [compound 115, 6-[3-(2-fluoro-5-methyl-anilino)-7,8-dihydro-5H-1,6-naphthyridin-6-yl]-5-methyl-pyridine-3-carbonitrile], the Emax at 30 µM is 92% and the EC50 came to 995 nM.

`Cc1cc(C#N)cnc1N1CCc2ncc(Nc3cc(F)cc(F)c3F)cc2C1` [compound 116, 5-methyl-6-[3-(2,3,5-trifluoroanilino)-7,8-dihydro-5H-1,6-naphthyridin-6-yl]pyridine-3-carbonitrile]: the Emax at 30 µM stood at 95% and the EC50 amounted to 336 nM.

On to `Cc1cnc2c(c1)CN(c1nnc(C#N)c(C)c1C)CC2` [compound 117, 4,5-dimethyl-6-(3-methyl-7,8-dihydro-5H-1,6-naphthyridin-6-yl)pyridazine-3-carbonitrile], for which the Emax amounted to 55% and the EC50 is 3650 nM.

Regarding `Cc1c(C#N)nnc(N2CCc3ncccc3C2)c1C` [compound 118, 6-(7,8-dihydro-5H-1,6-naphthyridin-6-yl)-4,5-dimethyl-pyridazine-3-carbonitrile], the Emax stood at 92% and the EC50 was 2820 nM.

As for `Cc1c(C#N)nnc(N2CCc3ncc(Nc4cccnc4F)cc3C2)c1C` [compound 119, 6-[3-[(2-fluoro-3-pyridyl)amino]-7,8-dihydro-5H-1,6-naphthyridin-6-yl]-4,5-dimethyl-pyridazine-3-carbonitrile], the Emax at 30 µM is 82% and the EC50 stood at 191 nM.

For the compound `Cc1cc(C(=O)NCc2cn3ccccc3n2)cnc1N1CCc2ncccc2C1` [compound 120], the Emax at 30 µM is 64% and the EC50 was found to be 2680 nM.

Consider `Cc1cc(C(=O)Nc2ccncc2)cnc1N1CCc2ncccc2C1` [compound 121, 6-(7,8-dihydro-5H-1,6-naphthyridin-6-yl)-5-methyl-N-(4-pyridyl)pyridine-3-carboxamide], for which the Emax at 30 µM was 70% and the EC50 is 544 nM.

Consider `Cc1cc(C(=O)NC2CCOCC2)cnc1N1CCc2ncccc2C1` [compound 122, 6-(7,8-dihydro-5H-1,6-naphthyridin-6-yl)-5-methyl-N-tetrahydropyran-4-yl-pyridine-3-carboxamide], for which the maximal effect (Emax) at 30 µM came to 55% and the EC50 is at least 10000 nM.

Consider `Cc1cc(C(=O)NCc2ccno2)cnc1N1CCc2ncccc2C1` [compound 123, 6-(7,8-dihydro-5H-1,6-naphthyridin-6-yl)-N-(isoxazol-5-ylmethyl)-5-methyl-pyridine-3-carboxamide], for which the Emax at 30 µM worked out at 82% and the EC50 is at least 10000 nM.

As to `Cc1cc(C(=O)NC23CC(F)(C2)C3)cnc1N1CCc2ncccc2C1` [compound 124, 6-(7,8-dihydro-5H-1,6-naphthyridin-6-yl)-N-(3-fluoro-1-bicyclo[1.1.1]pentanyl)-5-methyl-pyridine-3-carboxamide], the maximal effect (Emax) at 30 µM was 78% and the EC50 came to 2170 nM.

On to `Cc1cc(C(=O)NCc2nc3ccccc3s2)cnc1N1CCc2ncccc2C1` [compound 125, N-(1,3-benzothiazol-2-ylmethyl)-6-(7,8-dihydro-5H-1,6-naphthyridin-6-yl)-5-methyl-pyridine-3-carboxamide], for which the Emax at 30 µM is 78% and the EC50 stood at 856 nM.

For the compound `Cc1cc(C(=O)NCCc2ccncc2)cnc1N1CCc2ncccc2C1` [compound 126, 6-(7,8-dihydro-5H-1,6-naphthyridin-6-yl)-5-methyl-N-[2-(4-pyridyl)ethyl]pyridine-3-carboxamide], the Emax at 30 µM was 63% and the EC50 amounted to 9080 nM.
